pIC50, pKi: −log10 of the molar value.

Experiment [1] has as its target Ca^2+ channel (L, verapamil site) (phenylalkylamines). The experiment can be described thus: Ca^2+ channel (L, verapamil site) binding assay. Also noted: species or system rat.
Experiment [2] addresses T1, β1(h) (Homo sapiens, UniProt P08588).
T1 construct: expressed in transfected cells; host or cells: HEK-293 cells
The experiment can be described thus: β1(h) binding assay. As to conditions: Hill coefficient, reference compound.

For experiment [3], the target named is T2, Choline transporter (Rattus norvegicus, UniProt Q9JMD7).
T2 construct: rat striatum; from tissue; host or cells: rat striatum
T2 sequence (Q9JMD7 1-580): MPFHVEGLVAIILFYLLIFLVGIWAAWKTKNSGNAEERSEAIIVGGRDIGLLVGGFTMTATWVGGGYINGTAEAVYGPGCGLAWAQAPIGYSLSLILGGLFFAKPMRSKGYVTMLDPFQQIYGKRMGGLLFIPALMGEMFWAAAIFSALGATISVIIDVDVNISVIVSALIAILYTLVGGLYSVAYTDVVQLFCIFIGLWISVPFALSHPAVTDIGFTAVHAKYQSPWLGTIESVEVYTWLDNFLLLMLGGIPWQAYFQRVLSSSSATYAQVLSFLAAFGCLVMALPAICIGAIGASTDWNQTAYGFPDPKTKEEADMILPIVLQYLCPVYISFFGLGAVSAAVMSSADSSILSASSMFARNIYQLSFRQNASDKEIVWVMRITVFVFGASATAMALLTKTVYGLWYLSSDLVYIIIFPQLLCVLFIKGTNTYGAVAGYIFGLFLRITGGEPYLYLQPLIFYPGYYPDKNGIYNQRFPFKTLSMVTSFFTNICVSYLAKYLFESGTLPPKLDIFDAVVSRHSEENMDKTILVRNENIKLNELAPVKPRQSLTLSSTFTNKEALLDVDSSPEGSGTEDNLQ
The experiment is described as follows: Choline transporter binding assay. The conditions noted are these: reference compound.

In experiment [4] the target is Progesterone(h) (PR). The experiment is described as follows: Progesterone(h) (PR) binding assay. Also noted: species or system human.
The target in experiment [5] is T3, D2S(h) (Homo sapiens, UniProt P14416).
T3 construct: expressed in transfected cells; host or cells: CHO cells
The experiment can be described thus: biochemical. The format is binding.

In experiment [6] the target is T4, ATPase (Na^+/K^+) (Canis lupus familiaris, UniProt P50997).
T4 construct: dog kidney; from tissue; host or cells: dog kidney
The experiment is described as follows: ATPase (Na^+/K^+) enzyme assay. Type of experiment: biochemical, dog. As to conditions: ATPase (Na^+/K^+).

Experiment [7] concerns BZD (central). The experiment can be described thus: BZD (central) binding assay. More on the design: species or system rat. The conditions noted are these: Hill coefficient, reference compound.
For experiment [8], the system named is Y (non-selective). The experiment is described as follows: Y (non-selective) binding assay. More on the design: species or system rat. The conditions noted are these: reference compound.
The target in experiment [9] is T5, B2(h) (Homo sapiens, UniProt P30411).
T5 construct: expressed in transfected cells; host or cells: CHO cells
The experiment is described as follows: B2(h) binding assay.

Experiment [10] has as its target T6, CRF1 (Rattus norvegicus, UniProt P35353).
T6 construct: from tissue; host or cells: rat pituitary gland
The experiment is described as follows: CRF1 binding assay. The conditions noted are these: Hill coefficient, reference compound.

The subject of experiment [11] is TRH. The experiment is described as follows: TRH binding assay. More on the design: species or system rat. The conditions noted are these: reference compound.
For experiment [12], the target named is T7, GABA transaminase (Rattus norvegicus, UniProt P50554).
T7 construct: rat brain; from tissue; host or cells: rat brain
The experiment can be described thus: GABA transaminase enzyme assay. The format is biochemical. As to conditions: GABA transaminase.

For experiment [13], the target named is T8, Phosphodiesterase 2(h) (Homo sapiens, UniProt O00408).
T8 construct: differentiated U-; endogenous in cells; host or cells: differentiated U-937 cells
The experiment is described as follows: Phosphodiesterase 2(h) enzyme assay. The format is biochemical. The conditions noted are these: Phosphodiesterase 2(h).

Experiment [14] has as its target T9, Tyrosine hydroxylase (Rattus norvegicus, UniProt P04177).
T9 construct: rat striatum; from tissue; host or cells: rat striatum
The experiment is described as follows: Tyrosine hydroxylase enzyme assay. Type of experiment: biochemical. As to conditions: Tyrosine hydroxylase.

In experiment [15] the target is T10, AT2(h) (Homo sapiens, UniProt P50052).
T10 construct: expressed in transfected cells; host or cells: Hela cells
The experiment is described as follows: AT2(h) binding assay. As to conditions: Hill coefficient, reference compound.

The target in experiment [16] is T11, AT1(h) (Homo sapiens, UniProt P30556).
T11 construct: expressed in transfected cells; host or cells: CHO cells
The experiment is described as follows: AT1(h) binding assay. As to conditions: Hill coefficient, reference compound.

The target in experiment [17] is K^+V channel. The experiment can be described thus: K^+V channel binding assay. Also noted: species or system rat.
In experiment [18] the test system is P2Y. The experiment can be described thus: P2Y binding assay. Also noted: species or system rat. The conditions noted are these: reference compound.

T8 sequence (O00408 whole entry): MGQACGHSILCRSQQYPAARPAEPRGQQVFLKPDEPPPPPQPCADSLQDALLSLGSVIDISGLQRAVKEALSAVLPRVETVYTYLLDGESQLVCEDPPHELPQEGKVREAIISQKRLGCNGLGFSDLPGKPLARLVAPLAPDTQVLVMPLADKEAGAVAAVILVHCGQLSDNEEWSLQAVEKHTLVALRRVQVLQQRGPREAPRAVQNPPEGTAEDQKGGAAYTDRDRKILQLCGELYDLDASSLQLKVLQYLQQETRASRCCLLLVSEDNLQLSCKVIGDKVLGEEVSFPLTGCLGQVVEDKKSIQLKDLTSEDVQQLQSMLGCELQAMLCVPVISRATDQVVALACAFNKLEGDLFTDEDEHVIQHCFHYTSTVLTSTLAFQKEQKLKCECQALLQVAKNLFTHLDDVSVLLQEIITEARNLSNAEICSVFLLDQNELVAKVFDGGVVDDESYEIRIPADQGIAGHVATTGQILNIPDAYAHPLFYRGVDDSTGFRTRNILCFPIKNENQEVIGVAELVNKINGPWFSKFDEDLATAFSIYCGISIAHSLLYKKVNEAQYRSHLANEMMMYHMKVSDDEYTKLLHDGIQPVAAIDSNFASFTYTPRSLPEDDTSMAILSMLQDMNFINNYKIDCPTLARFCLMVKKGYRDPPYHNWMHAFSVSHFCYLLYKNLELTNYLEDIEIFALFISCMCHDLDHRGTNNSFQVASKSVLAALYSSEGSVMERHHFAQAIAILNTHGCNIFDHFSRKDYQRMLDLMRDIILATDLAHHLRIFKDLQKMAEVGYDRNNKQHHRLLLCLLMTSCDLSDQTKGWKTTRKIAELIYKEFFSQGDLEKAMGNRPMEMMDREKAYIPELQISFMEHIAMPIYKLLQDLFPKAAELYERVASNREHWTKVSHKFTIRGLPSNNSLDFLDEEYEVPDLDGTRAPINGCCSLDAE
T7 sequence (P50554 28-500): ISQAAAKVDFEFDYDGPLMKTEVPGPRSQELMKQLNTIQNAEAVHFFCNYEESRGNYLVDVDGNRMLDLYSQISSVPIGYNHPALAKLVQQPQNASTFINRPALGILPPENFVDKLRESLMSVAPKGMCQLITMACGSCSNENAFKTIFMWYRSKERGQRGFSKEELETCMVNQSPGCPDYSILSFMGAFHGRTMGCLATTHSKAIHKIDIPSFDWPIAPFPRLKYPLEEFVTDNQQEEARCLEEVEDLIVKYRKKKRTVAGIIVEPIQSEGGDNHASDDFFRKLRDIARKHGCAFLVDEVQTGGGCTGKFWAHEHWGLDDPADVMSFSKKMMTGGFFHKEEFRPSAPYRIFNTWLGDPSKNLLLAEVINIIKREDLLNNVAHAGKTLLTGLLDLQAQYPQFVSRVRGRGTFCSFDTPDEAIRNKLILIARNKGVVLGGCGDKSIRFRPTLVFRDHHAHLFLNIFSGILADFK
T9 sequence (P04177 whole entry): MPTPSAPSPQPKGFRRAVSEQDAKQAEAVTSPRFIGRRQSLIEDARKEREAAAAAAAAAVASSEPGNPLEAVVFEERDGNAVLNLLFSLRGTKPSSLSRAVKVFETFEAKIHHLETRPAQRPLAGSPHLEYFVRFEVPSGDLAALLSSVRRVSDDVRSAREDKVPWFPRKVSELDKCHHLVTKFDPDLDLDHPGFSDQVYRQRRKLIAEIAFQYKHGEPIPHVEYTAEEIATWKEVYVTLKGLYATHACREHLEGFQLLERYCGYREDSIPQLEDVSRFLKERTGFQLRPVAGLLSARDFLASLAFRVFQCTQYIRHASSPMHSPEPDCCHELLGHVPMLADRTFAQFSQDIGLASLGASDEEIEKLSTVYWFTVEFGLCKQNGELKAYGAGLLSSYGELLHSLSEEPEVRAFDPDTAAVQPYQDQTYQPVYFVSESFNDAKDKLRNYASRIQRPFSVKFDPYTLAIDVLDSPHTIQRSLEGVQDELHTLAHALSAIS
T3 sequence (P14416 1-414 isoform P14416-2): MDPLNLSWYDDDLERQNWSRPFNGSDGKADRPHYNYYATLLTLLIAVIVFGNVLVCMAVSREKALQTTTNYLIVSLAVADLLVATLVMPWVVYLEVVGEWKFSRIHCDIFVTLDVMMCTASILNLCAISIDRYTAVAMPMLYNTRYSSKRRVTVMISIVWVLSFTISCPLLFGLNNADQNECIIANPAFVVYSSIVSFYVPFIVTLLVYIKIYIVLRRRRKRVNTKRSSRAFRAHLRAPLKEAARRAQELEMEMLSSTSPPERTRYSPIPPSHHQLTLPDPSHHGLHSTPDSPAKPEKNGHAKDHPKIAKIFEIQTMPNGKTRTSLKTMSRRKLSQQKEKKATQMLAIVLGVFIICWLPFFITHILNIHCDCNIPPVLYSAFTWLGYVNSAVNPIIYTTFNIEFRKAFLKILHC
T11 sequence (P30556 whole entry): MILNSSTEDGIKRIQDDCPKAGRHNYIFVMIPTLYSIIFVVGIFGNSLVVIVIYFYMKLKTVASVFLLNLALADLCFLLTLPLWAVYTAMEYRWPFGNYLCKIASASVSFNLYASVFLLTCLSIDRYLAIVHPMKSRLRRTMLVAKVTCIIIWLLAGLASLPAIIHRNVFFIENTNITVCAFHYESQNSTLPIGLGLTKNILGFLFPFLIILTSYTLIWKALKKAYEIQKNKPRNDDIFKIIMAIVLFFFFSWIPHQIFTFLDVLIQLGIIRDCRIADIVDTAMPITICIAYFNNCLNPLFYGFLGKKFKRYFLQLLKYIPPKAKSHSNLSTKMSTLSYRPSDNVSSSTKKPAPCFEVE
T5 sequence (P30411 whole entry): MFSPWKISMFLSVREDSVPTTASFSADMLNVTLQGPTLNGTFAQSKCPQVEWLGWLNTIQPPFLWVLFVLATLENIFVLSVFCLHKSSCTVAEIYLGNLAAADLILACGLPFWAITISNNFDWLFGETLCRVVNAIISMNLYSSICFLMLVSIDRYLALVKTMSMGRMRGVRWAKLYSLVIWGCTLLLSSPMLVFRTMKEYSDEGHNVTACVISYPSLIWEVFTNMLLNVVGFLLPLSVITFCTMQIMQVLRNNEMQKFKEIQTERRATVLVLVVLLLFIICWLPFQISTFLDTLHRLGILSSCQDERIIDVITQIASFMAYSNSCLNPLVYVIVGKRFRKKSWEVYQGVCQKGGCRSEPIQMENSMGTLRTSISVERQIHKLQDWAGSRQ
T1 sequence (P08588 whole entry): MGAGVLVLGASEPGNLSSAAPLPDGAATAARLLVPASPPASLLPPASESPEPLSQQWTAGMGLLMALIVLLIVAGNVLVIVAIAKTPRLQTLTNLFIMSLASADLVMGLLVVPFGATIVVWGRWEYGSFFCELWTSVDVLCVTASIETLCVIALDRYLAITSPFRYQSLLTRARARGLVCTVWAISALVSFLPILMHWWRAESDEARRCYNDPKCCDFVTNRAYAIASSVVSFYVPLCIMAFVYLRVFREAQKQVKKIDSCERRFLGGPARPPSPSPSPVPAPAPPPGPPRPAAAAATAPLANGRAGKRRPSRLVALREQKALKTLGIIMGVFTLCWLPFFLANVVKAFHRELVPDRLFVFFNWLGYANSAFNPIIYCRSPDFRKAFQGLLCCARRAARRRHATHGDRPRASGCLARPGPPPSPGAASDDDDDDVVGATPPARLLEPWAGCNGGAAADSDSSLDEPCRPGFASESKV
T10 sequence (P50052 whole entry): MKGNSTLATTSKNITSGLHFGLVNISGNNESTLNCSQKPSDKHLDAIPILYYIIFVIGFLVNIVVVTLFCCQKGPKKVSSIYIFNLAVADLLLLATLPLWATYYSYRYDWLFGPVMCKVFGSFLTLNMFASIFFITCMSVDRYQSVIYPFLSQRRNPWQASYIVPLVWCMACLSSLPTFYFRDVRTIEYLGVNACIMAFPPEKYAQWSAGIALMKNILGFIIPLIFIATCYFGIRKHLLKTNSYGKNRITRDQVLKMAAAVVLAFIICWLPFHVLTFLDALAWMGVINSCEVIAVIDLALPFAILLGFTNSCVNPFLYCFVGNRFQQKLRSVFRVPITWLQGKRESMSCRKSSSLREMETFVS
T6 sequence (P35353 24-415): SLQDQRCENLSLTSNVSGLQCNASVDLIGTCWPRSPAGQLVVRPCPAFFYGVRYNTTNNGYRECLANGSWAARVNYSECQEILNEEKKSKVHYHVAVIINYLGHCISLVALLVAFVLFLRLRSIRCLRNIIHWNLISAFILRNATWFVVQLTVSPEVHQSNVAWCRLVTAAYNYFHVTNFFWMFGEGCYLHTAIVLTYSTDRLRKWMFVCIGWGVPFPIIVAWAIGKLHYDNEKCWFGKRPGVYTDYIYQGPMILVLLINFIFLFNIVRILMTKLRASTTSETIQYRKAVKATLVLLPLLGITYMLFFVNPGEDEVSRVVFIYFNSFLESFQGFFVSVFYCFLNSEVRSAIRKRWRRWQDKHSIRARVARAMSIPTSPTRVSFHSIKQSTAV

For orientation: pKi means the negative decadic logarithm of the Ki, by convention in mol/L. A lower pKi goes with a high Ki. Regarding `COc1ccc(CCN(C)CCCC(C#N)(c2cc(OC)c(OC)c(OC)c2)C(C)C)cc1OC` (stereo not drawn) [D 600], in experiment [1], the pKi was 9.08 and the nH is 0.6.
In experiment [2], `CC(C)NCC(O)COc1ccc(CC(N)=O)cc1` (stereo not drawn) [atenolol, reference compound] displayed a nH of 0.7.
A word on the pIC50: it is the negative decadic logarithm of the IC50, by convention in mol/L. Read a low pIC50 as a high IC50. For the molecule `C[N+]1(C)CCOC(O)(c2ccc(-c3ccc(C4(O)C[N+](C)(C)CCO4)cc3)cc2)C1.[Br-].[Br-]` (stereo not drawn) [hemicholinium-3], the nH in [3] (Hill coefficient) was 0.7. The same molecule showed a negative-log IC50 (pIC50) in experiment [3] of 8.10. The same molecule had a pKi in experiment [3] (Cheng Prusoff) of 8.26.
In [4], `CCC(=O)[C@@]1(C)CC[C@H]2[C@@H]3CCC4=CC(=O)CCC4=C3CC[C@@]21C` [R 5020] showed a negative-log IC50 (pIC50) of 8.05, a pKi of 8.52 and a nH of 1.1.
(+)butaclamol [reference compound]: the nH in [5] worked out at 1.2.
For the molecule `C[C@@H]1O[C@@H](O[C@H]2C[C@@H](O)[C@]3(CO)[C@H]4[C@H](O)C[C@]5(C)[C@@H](C6=CC(=O)OC6)CC[C@]5(O)[C@@H]4CC[C@]3(O)C2)[C@H](O)[C@H](O)[C@H]1O` [ouabain], the nH in [6] (Hill coefficient) stood at 1.2. Further, in experiment [6] (reference compound), the pIC50 was 6.04.
Molecule `CN1C(=O)CN=C(c2ccccc2)c2cc(Cl)ccc21` [diazepam, reference compound] registered a nH in [7] of 1.2.
In turn, NPY showed a nH in [8] (Hill coefficient) of 1.3. In experiment [8], this molecule had a negative-log IC50 (pIC50) of 9.00.
As to NPC 567 [reference compound], in [9], the nH was 0.6.
As for `CC[C@H](C)[C@H](NC(=O)[C@@H](NC(=O)[C@H](CCC(=O)O)NC(=O)[C@H](CCSC)NC(=O)[C@H](CC(C)C)NC(=O)[C@H](CCCCN)NC(=O)[C@H](CCCNC(=N)N)NC(=O)[C@H](CC(N)=O)NC(=O)[C@H](CO)NC(=O)[C@H](Cc1c[nH]cn1)NC(=O)[C@H](C)NC(=O)[C@H](CCC(N)=O)NC(=O)[C@H](CCC(N)=O)NC(=O)[C@H](C)NC(=O)[C@H](CC(C)C)NC(=O)[C@H](CCC(N)=O)NC(=O)[C@H](CCC(=O)O)NC(=O)[C@H](C)NC(=O)[C@H](CCCNC(=N)N)NC(=O)[C@H](C)NC(=O)[C@H](CCSC)NC(=O)[C@H](CCC(=O)O)NC(=O)[C@H](CC(C)C)NC(=O)[C@@H](NC(=O)[C@H](CCC(=O)O)NC(=O)[C@H](CCCNC(=N)N)NC(=O)[C@H](CC(C)C)NC(=O)[C@H](CC(C)C)NC(=O)[C@H](Cc1c[nH]cn1)NC(=O)[C@H](Cc1ccccc1)NC(=O)[C@@H](NC(=O)[C@H](CC(C)C)NC(=O)[C@H](CC(=O)O)NC(=O)[C@H](CC(C)C)NC(=O)[C@H](CO)NC(=O)[C@@H](NC(=O)[C@@H]1CCCN1C(=O)[C@@H]1CCCN1C(=O)[C@H](CCC(=O)O)NC(=O)[C@H](CCC(=O)O)NC(=O)[C@@H](N)CO)[C@@H](C)CC)[C@@H](C)O)C(C)C)[C@@H](C)CC)C(N)=O` [CRF, reference compound], the nH in experiment [10] was 0.6.
For TRH, in [11] (Hill coefficient), the nH is 0.9. In [11], the pIC50 is 7.31. The negative-log Ki (pKi) in [11] (Cheng Prusoff) is 7.52.
Consider `NOCC(=O)O` [AoAA], for which, in experiment [12] (Hill coefficient), the nH worked out at 1.1. The negative-log IC50 (pIC50) in [12] (reference compound) is 6.68.
The molecule `CCCCCC[C@@H]([C@@H](C)O)n1cnc2c(N)ncnc21` (racemic) [EHNA] registered a nH in experiment [13] (Hill coefficient) of 0.4. In experiment [13] (reference compound), the negative logarithm of the IC50 (pIC50) was 5.39.
As for `N[C@@H](Cc1ccc(O)c(I)c1)C(=O)O` [3-iodo L-tyrosine], the nH in experiment [14] (Hill coefficient) turned out to be 1.1. The pIC50 in [14] (reference compound) is 6.00.
Consider `CNCC(=O)N[C@@H](CCCN=C(N)N)C(=O)N[C@H](C(=O)N[C@@H](Cc1ccc(O)cc1)C(=O)N[C@H](C(=O)N[C@@H](Cc1cnc[nH]1)C(=O)N1CCC[C@H]1C(=O)N[C@@H](C)C(=O)O)C(C)C)C(C)C` [saralasin, reference compound], for which the nH in experiment [15] was 0.8; in experiment [16] it was 1.1.
As to α-dendrotoxin, in experiment [17], the pKi is 8.96 and the nH turned out to be 3.1.
`Nc1ncnc2c1ncn2[C@H]1C[C@H](O)[C@@H](COP(O)(=S)OP(=O)(O)OP(=O)(O)O)O1` (stereo partly drawn) [dATPαS] yielded a nH in experiment [18] (Hill coefficient) of 1.3. Further, in experiment [18], the pIC50 is 7.00. The same molecule had a pKi in [18] (Cheng Prusoff) of 7.28.

Source of the values: US20090264384A1, “INDOLE, BENZIMIDAZOLE, AND BENZOLACTAM BORONIC ACID COMPOUNDS, ANALOGS THEREOF AND METHODS OF USE THEREOF” (Nuada, Inc., priority 2004, published 2009).
